Legend:
GPX4 [1] = test system: GPX4; set-up: method as in PMID 33812801; settings: cited from earlier work
TXNRD1 [2] = target: T1, TXNRD1 (Homo sapiens, UniProt Q16881); assay: TXNRD1 activity assay, pure enzyme (Fig. 1A); assay type: biochemical
T1 construct: made in house
T1 sequence (Q16881 1-499 isoform Q16881-5): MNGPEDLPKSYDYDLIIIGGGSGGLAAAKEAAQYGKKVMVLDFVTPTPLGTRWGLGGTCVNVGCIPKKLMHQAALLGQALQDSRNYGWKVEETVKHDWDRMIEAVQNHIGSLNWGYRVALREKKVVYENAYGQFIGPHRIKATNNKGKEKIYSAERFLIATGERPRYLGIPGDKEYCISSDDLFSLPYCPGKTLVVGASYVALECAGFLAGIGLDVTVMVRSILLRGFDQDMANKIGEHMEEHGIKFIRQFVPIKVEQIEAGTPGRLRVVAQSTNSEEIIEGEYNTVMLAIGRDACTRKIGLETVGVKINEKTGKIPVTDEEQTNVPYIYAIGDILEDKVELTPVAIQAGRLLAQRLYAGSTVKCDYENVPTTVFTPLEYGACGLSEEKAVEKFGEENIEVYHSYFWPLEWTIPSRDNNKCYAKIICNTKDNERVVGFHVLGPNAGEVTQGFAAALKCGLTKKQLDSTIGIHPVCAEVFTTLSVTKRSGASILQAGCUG
Method: (§1) Recombinant human proteins—Recombinant human selenoprotein GPX and TXNRD isoenzymes as well as recombinant human GR were cloned, expressed, and purified as described previously [[26], [27], [28]].
(§2) TXNRD1 selenite and DTNB assays were run as previously described [[26], [27], [28]]. Dose-response curves and IC50s were generated using Excel and GraphPad Prism. Briefly, initial slopes of NADPH consumption were normalized to DMSO controls and IC50s were calculated using log(inhibitor) vs. response—Variable slope (four parameters).

[3] = test system: malondialdehyde (MDA) and Ptgs2 mRNA levels; set-up: method as in PMID 32732975; settings: hemochromatosis mouse model; reversed by Ferrostatin-1; cited from earlier work
GPX1 = target: T2, GPX1 (Homo sapiens, UniProt P07203); assay: GPX1 activity assay, pure enzyme (NADPH consumption, cumene hydroperoxide); assay type: biochemical; settings: for IC50: recombinant GPX1, 30 min preincubation, read-out: IC50 GPX1 inhibition
T2 construct: made in house
T2 sequence (P07203 1-203): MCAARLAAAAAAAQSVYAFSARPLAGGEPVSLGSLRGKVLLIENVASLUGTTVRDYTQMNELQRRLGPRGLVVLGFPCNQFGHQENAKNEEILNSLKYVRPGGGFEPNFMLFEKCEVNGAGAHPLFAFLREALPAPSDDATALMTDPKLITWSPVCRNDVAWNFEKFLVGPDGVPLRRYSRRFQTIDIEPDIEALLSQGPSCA
Method: as §1
(§3) Biochemical assays—GPX assays were run as previously described [[26], [27], [28]] in a clear medium-binding 96-well SpectraPlates (PerkinElmer). Briefly, 198 μL of 10 nM GPX1 or 200 nM GPX4 were incubated with 2 μL compounds or DMSO in TES buffer (50 mM Tris-HCl, 2 mM EDTA (pH 7.5), 150 mM NaCl) with BSA at room temperature for 30 min. Then, 40 μL of master mix (100 nM GR, 1 mM GSH, 0.5 mM NADPH in TES buffer) was added. To start the reaction, 10 μL of Cumene hydroperoxide ([0.5 mM] in 50% EtOH) was then added. Absorbance at 340 nm was measured using a Tecan Infinite® M Nano microplate reader every 20 s for 30 min. Four replicates were run, unless otherwise stated.

TXNRD1 [4] = target: T3, TXNRD1 (Homo sapiens, UniProt Q16881); assay: Cellular TXNRD1 assay with RX1 probe in A549 cells; assay type: cell-based
T3 construct: RX1 probe that specifically reports upon TXNRD1 enzymatic activity in live cells; endogenous in cells; host or cells: A549
T3 sequence (Q16881 151-649 limits assumed): T1 sequence (Q16881 1-499 isoform Q16881-5)
Method: Cellular TXNRD1 assay—20,000 or 10,000 A549 cells (for 4 h or 12 h and 24 h compound incubation respectively) were seeded in 96-well plates (microplates, 96 well, F-bottom, black, clear bottom, ViewPlateTM-96 F TC, PerkinElmer), in a total volume of 100 μL full DMEM (supplemented with 10% FBS and 100 nM Na2SeO3). […] The cells were subsequently incubated for the respective mentioned time, washed once with full DMEM and fresh, full DMEM, containing 75 μM RX1 and 0.75% DMSO, was added and the first fluorescent measurement was conducted immediately (timepoint = 0) using a Tecan Infinite M200 plate reader (ex/em 355/520). To follow the kinetic activation of RX1, a fluorescent measurement was done every hour for 6 h. Between measurements, cells were stored at 37 °C and 5% CO2. As a control, cells treated with compounds, but not with RX1, just the respective DMSO content, were used for background fluorescent. To determine how the cells were viable throughout the RX1 assay, the control cells were used for a viability measurement, using CellTiter-Glo® Luminescent Cell Viability Assay, after the final fluorescent measurement. For final data analysis, raw data was processed using Microsoft Excel and GraphPad Prism. In brief, the slope of the activated RX1 fluorescence increase was in each case calculated and normalized, using the viability measurement of the control cells.

GPX4 [5] = target: T4, GPX4 (Homo sapiens, UniProt P36969); assay: nano differential scanning fluorimetry, GPX4; assay type: binding; settings: 100 μM compound; DMSO control 51.7 °C
T4 construct: made in house
T4 sequence (P36969 1-170 isoform P36969-2): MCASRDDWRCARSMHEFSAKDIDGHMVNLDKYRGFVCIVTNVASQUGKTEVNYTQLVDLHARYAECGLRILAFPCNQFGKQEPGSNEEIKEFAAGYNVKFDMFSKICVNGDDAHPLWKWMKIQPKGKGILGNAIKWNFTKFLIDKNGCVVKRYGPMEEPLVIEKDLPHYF
Method: Nano differential scanning fluorimetry—Real-time monitoring of fluorescence emission at 330 nm and 350 nm (excitation wavelength: 280 nm) and backscattering absorbance of GPX4 and TXNRD1 samples in the presence of compound was performed using a NanoTemper Prometheus NT.48 instrument. First, 0.25 mg/mL enzyme was incubated with 100 μM compound or DMSO for 15 min at room temperature. Standard capillaries were used, and temperature was increased from 25 to 95 °C with a ramp rate of 4.0 °C/min. Three biological replicates were carried out for each condition, and their means and standard deviations are depicted.

GPX4 [6] = target: T4, GPX4; assay: GPX4 activity assay, pure enzyme (NADPH consumption, cumene hydroperoxide); assay type: biochemical; settings: for IC50: recombinant GPX4, 30 min preincubation, read-out: IC50 GPX4 inhibition
Method: as §1, §3

A549 cells = assay: A549 viability in cellular TXNRD1 (RX1) experiments; settings: A549, 4 h, Extended Data Fig. 3A
Method: Cellular TXNRD1 assay—20,000 or 10,000 A549 cells (for 4 h or 12 h and 24 h compound incubation respectively) were seeded in 96-well plates (microplates, 96 well, F-bottom, black, clear bottom, ViewPlateTM-96 F TC, PerkinElmer), in a total volume of 100 μL full DMEM (supplemented with 10% FBS and 100 nM Na2SeO3). The cells were incubated for 16 h at 37 °C and 5% CO2, followed by media change and addition of indicated compounds at respective concentrations (0.1 μM–20 μM), including 0.6% DMSO. The cells were subsequently incubated for the respective mentioned time, washed once with full DMEM and fresh, full DMEM, containing 75 μM RX1 and 0.75% DMSO, was added and the first fluorescent measurement was conducted immediately (timepoint = 0) using a Tecan Infinite M200 plate reader (ex/em 355/520). To follow the kinetic activation of RX1, a fluorescent measurement was done every hour for 6 h. Between measurements, cells were stored at 37 °C and 5% CO2. As a control, cells treated with compounds, but not with RX1, just the respective DMSO content, were used for background fluorescent. To determine how the cells were viable throughout the RX1 assay, the control cells were used for a viability measurement, using CellTiter-Glo® Luminescent Cell Viability Assay, after the final fluorescent measurement. For final data analysis, raw data was processed using Microsoft Excel and GraphPad Prism. In brief, the slope of the activated RX1 fluorescence increase was in each case calculated and normalized, using the viability measurement of the control cells.
Extended Data Figure 3: A549 cytotoxicity in cellular TXNRD1 experiments following final
A) Cell viability following 4-hour incubation with
compounds; B) Viability following 12-hour incubation with compounds; C) Viability
following 24 -hour incubation with compounds. The cell viability in was in each case measured
using the Cell Quanti-BlueTM Cell Viability Assay Kit and the data are presented as mean ±
s.d. of n = 3 biological replicates, each containing n = 3 technical replicates.

TXNRD1 [7] = target: T1, TXNRD1; assay: TXNRD1 orthogonal assays (selenite reduction, DTNB reduction; Extended Data Fig. 2); assay type: biochemical; settings: selenite and DTNB assays
Method: as §2
Supplementary Data Extended Data Set
(Extended Data Fig. 2A, left panel). Measuring inhibition of TXNRD1 activity, as a complement to the analyses shown in the main text of this article, we also assessed this using two orthogonal approaches: 1. by the measurement of NADPH consumption coupled to direct selenite reduction of TXNRD1, either through the decrease in absorbance at 340 nm or decrease in its fluorescence, and 2. measuring TXNRD1-catalyzed DTNB reduction based upon quantification of TNB- anions absorbing at 412 nm as formed upon TXNRD1-catalyzed reduction of the disulfide in DTNB. Using these assays, we could confirm that the RSL3 inhibition of TXNRD1 was not an artifact due to specific assay conditions, with both RSL3 and ML162 showing complete inhibition of TXNRD1 at the higher end of the concentrations assessed here (2.8 ± 0.9% and 5.8 ± 0.9% remaining activity with just 5 µM of RSL3 and […]
ML162 (Extended Data Fig. 2A, middle and right panels, and 2B). […]
any inhibition of TXNRD1 in any of the assays. […]
µM, respectively (Extended Data Fig. 2B). Like with TRi-1 and TRi-2, inhibition of both TXNRD1 and TXNRD2 by RSL3 and ML162 was essentially dependent on pre-reduction of the enzyme by NADPH in order to yield potent and complete inactivation. Both compounds […]
ML162 in the absence of NADPH and subsequently assayed for activity; however, this could also be due to carry-over of the compounds to the NADPH dependent enzyme activity assay.
Because the reduction step with NADPH reduces a selenenylsulfide at the C-terminal active […]
of the selenolate at the C-terminal active site of the NADPH-reduced enzyme. That some […]
compounds might also bind some other additional site(s) in the enzyme. That notion is further strengthened by the fact that thermostability of TXNRD1 was also affected at higher concentrations of compounds when incubated with the enzyme in the absence of NADPH (see […]
dose-response curve fit to the average of n = 3 technical replicates. […]
well (middle left panel) and 1536-well format (not shown), as well as a DTNB assay (middle […]
TXNRD2 by RSL3 (left panel), ML162 (middle left panel), TRi-1 (middle right panel), and TRi-2 (right panel) are modulated by NADPH pre-treatment; Data are presented as mean ± s.d.; Four-parameter dose-response curve fit to the average of n = 3 technical replicates (n = 2

[8] = recombinant selenoprotein, pure enzyme system

In the case of `CC(=O)OC[C@H]1O[C@@H]([S-])[C@H](OC(C)=O)[C@@H](OC(C)=O)[C@@H]1OC(C)=O.CCP(CC)CC.[Au+]` [Auranofin, auranofin], the “Effect on GPX4 expression levels” value (GPX4 [1]) is listed as “decrease GPX4 expression levels”, the IC50 (TXNRD1 [2]; recombinant TXNRD1, Fig. 1A assay conditions, read-out: IC50 TXNRD1 inhibition) is listed as ~19 µM and the “Hepatic malondialdehyde (MDA) and Ptgs2 mRNA levels” value [3] is listed as “increase in hepatic malondialdehyde (MDA)”. It also gave an IC50 (GPX1) of 4.7 µM.
With `Cc1onc(C(=O)N2CCN(C(c3ccc(Cl)cc3)c3ccc(Cl)cc3)CC2)c1[N+](=O)[O-]` [ML210] the “Effect on cellular TXNRD1 activity (RX1)” value (TXNRD1 [4]; A549, 20 μM) was “slightly suppressed TXNRD1 activity”, the “Effect on cellular TXNRD1 activity (RX1)” value (TXNRD1 [4]; A549, 0.5–1 μM) was “tendency to increase the TXNRD1 activity” and the “Effect on cellular TXNRD1 activity (RX1) at 4 h” value (TXNRD1 [4]; A549, 4 h incubation, RSL3 and ML162 at 1 μM or higher) was “increase in TXNRD1 activity”. The “Tm of GPX4 (nanoDSF)” value (GPX4 [5]) was 52.1 °C, the “Inhibition of GPX4” value (GPX4 [6]; [8]) was “neither RSL3, ML162, nor ML210 inhibited either GPX isoenzyme” and the “Inhibition of GPX1” value (GPX1; [8]) was “neither RSL3, ML162, nor ML210 inhibited either GPX isoenzyme”. The “Effect on cell viability at 4 h” value (A549 cells) was “no overt effects on viability” and the “Inhibition of TXNRD1 in any of the assays” value (TXNRD1 [7]) was “did not show any inhibition of TXNRD1”.
With `OC[C@H]1O[C@H]([S-])[C@H](O)[C@@H](O)[C@@H]1O.[Au+]` [aurothioglucose] the “Specificity among GPX1, GPX4, GR and TXNRD1” value (TXNRD1 [2]; pure enzyme systems, Fig. 1A lower panels) was “only showed TXNRD1 inhibition”.
In the case of `O=C(O)CC(S)C(=O)O` (centres unmarked) [mercaptosuccinic acid], the IC50 (GPX4 [6]) is reported as < 10 µM and the IC50 (GPX1) is reported as < 10 µM.
With `[Cl][Hg][Cl]` [mercuric chloride] the IC50 (GPX4 [6]) was < 10 µM and the IC50 (GPX1) was < 10 µM.

From PMC10149367, “The ferroptosis inducing compounds RSL3 and ML162 are not direct inhibitors of GPX4 but of TXNRD1” (Redox Biology, 2023)
